Data from patent US9371265B2, “Compositions and methods related to inhibitors of JAK kinase” (EP PHARMA, INC., priority 2012, dated 2016).

How the values were obtained:
YANK3 = YANK3 (Homo sapiens, UniProt Q86UX6); assay: Kinase panel: YANK3; type: biochemical; conditions: 10 μM EP009
Protocol: (§1) Achieving JAK3 selectivity remains a significant challenge in the development of new small molecules for the treatment of cancer and immune-derived diseases. As such, the inventors employed cell-based screening assays of small-molecule libraries based upon the chemical scaffold of the established JAK3 inhibitor NC1153 (Stepkowski et al., J Immunol. (2005), 175(7):4236-4246) EP009 (FIG. 2A) was selected as a lead compound due to improved intrinsic stability (>95% purity in various solvents at 37° C. for 24 hours; FIG. 3) and high-degree of JAK3 selectivity. To test JAK3 versus JAK2 specificity of EP009, the IL-2/JAK3-dependent Kit225, and IL-3/JAK2-dependent BaF/3 cell lines were used. Kit225 and BaF/3 cells growing in the presence of IL-2 or IL-3, respectively, were treated with ascending concentrations of EP009 for 12 hours and cellular JAK3 and JAK2 tyrosine phosphorylation levels detected by Western blot analysis (FIGS. 2B and 2C). Following densitometric analysis, EP009 was determined to dose-dependently reduce IL-2-mediated JAK3 tyrosine phosphorylation with a cellular 50% inhibitory concentration (IC50) between 10 and 20 μM (FIG. 2B). […] To globally evaluate specificity, the inhibitory activity of EP009 was measured against a panel of protein kinases distributed throughout the kinome using the scanEDGE profiling service (KINOMEscan). […]

caspase 3 = assay: Caspase 3 activation in SU-DHL-1 cells (Luminex multiplex); type: cell-based, human; conditions: 24 hours, dose-dependent
Protocol: FIGS. 7A-7C. EP009 reduces ALCL cell viability through induction of caspase 3 mediated apoptosis. (A) SUP-M2, SU-DHL-1 or H2228 cells were cultured with increasing amounts of EP009 (0-10 μM) for 72 hours and cell viability measured with the MTS tetrazolium salt assay. Values represent mean absorbance (OD490-OD650 nm) normalized to vehicle (PBS) treated control cells, while error bars represent the standard deviation (n=3). (B) SU-DHL-1 cells were treated with vehicle (PBS) or increasing amounts of EP009 (0-50 μM) for 24 hours. Cells were then lysed, clarified, and subjected to Luminex multiplex analysis to detect activated caspase 3 and (C) cleaved PARP. Values represent MFI normalized to corresponding GAPDH MFI, while error bars represent the standard deviation (n=2). Representative data from three independent experiments are shown. Statistical significance was determined using Student's t-test. (*, p<0.05).
The MILLIPLEX MAP 8-plex Multi-Pathway Signaling Phosphoprotein kit (Millipore) was used to detect phosphorylated ERK1/2 (Thr185/Tyr187), STAT3 (Ser727), JNK1/2 (Thr183/Tyr185), p70 S6 kinase (Thr412), IκBα (Ser32), STAT5A/B (Tyr694/699), CREB (Ser133), and p38 (Thr180/Tyr182). The MILLIPLEX MAP 5-plex STAT Phosphoprotein kit (Millipore) was used to detect phosphorylated STAT1 (Tyr701), STAT2 (Tyr690), STAT3 (Tyr705), STAT5A/B (Tyr694/699), and STAT6 (Tyr641). […]

ERK1/2 = assay: Phospho-ERK1/2 in SU-DHL-1 cells (Luminex multiplex); type: cell-based, human; conditions: 24 hours, dose-dependent
Protocol: FIGS. 8A-8F. Effect of EP009 on ALCL cells is mediated through selective activation of ERK1/2 and JNK1/2 stress signaling pathways, and inhibition of p70 S6 kinase growth signaling pathways. SU-DHL-1 cells were treated with vehicle (PBS) or increasing amounts of EP009 (0-50 μM) for 24 hours. Cells were then lysed, clarified, and subjected to Luminex multiplex analysis to detect phosphorylated (A) ERK1/2, (B) JNK1/2, (C) p70 S6 kinase, (D) IκBα, (E) CREB, and (F) p38. Values represent mean fluorescence intensity (MFI) normalized to corresponding GAPDH MFI, while error bars represent the standard deviation (n=2). Representative data from two independent experiments are shown. Statistical significance was determined using Student's t-test. (*, p<0.05).
The MILLIPLEX MAP 8-plex Multi-Pathway Signaling Phosphoprotein kit (Millipore) was used to detect phosphorylated ERK1/2 (Thr185/Tyr187), STAT3 (Ser727), JNK1/2 (Thr183/Tyr185), p70 S6 kinase (Thr412), IκBα (Ser32), STAT5A/B (Tyr694/699), CREB (Ser133), and p38 (Thr180/Tyr182). The MILLIPLEX MAP 5-plex STAT Phosphoprotein kit (Millipore) was used to detect phosphorylated STAT1 (Tyr701), STAT2 (Tyr690), STAT3 (Tyr705), STAT5A/B (Tyr694/699), and STAT6 (Tyr641). The MILLIPLEX MAP Human Apoptosis 3-plex kit (Millipore) was used to detect cleaved PARP, cleaved Caspase 3, and total GAPDH for protein normalization.

MEK1 = MEK1 (Homo sapiens, UniProt Q02750); assay: Kinase panel: MEK1; type: biochemical; conditions: 10 μM EP009
Protocol: as §1

Chain of YANK3 (Q86UX6 whole entry): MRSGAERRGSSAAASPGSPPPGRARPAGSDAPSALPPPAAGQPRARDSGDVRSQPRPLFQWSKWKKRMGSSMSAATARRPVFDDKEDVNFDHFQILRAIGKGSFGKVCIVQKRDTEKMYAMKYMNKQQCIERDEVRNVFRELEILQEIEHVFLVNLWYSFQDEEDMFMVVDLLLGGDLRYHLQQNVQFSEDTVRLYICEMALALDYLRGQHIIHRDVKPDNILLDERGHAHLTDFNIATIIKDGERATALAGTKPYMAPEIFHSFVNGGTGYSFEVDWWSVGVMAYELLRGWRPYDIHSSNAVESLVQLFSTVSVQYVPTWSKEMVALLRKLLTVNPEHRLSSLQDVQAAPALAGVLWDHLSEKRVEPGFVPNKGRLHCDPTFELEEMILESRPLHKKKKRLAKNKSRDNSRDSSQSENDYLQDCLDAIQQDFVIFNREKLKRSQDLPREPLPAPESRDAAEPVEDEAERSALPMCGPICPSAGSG
Chain of MEK1 (Q02750 whole entry): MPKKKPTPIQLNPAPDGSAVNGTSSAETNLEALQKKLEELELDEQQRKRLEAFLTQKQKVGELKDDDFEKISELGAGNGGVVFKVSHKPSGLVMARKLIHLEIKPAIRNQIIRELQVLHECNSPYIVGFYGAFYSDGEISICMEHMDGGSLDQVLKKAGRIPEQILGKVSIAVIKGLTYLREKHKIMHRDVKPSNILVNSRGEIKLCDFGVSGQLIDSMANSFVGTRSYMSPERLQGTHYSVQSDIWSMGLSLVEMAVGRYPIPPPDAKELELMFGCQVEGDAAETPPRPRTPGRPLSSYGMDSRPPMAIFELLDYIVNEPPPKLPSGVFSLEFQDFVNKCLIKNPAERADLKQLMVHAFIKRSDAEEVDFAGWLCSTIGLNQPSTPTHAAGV

C=C1CCCCCCCCCC(CO)C1=O (stereo not shown) [EP009, 2-(Hydroxymethyl)-12-methylenecyclododecanone] was tested, and the “Kinase Activity (% of Control)” value (YANK3) was 98 % of Control, the caspase-3 activation (caspase 3) was “increased” and the ERK1/2 phosphorylation (ERK1/2) was “induced phosphorylation and activation”. For the same compound, the “Kinase Activity (% of Control)” value (MEK1) was 71 % of Control.
